Results published in PMC6161288, “Bioavailability of Eurycomanone in Its Pure Form and in a Standardised Eurycoma longifolia Water Extract” (Pharmaceutics, 2018).

What was measured:
[1] = Chemical stability in simulated gastrointestinal fluids; type: physicochemical; conditions: GSF (pH 2), FESSIF (pH 5.0), FASSIF (pH 6.5)
Procedure: The chemical stability of eurycomanone was estimated in gastric simulated fluid (GSF), pH 2; fasted simulated intestinal fluid (FASSIF), pH 6.5; fed simulated intestinal fluid (FESSIF), pH 5.0; and in 150 mM NaHCO3 at pH 9.2. Eurycomanone (3 µL) at 5 mM was added to 297 µL of the respective buffers. The mixture (100 µL) was added to 100 µL of ACN at time points 1 and 3 h and sent for LC-MS/MS analysis.

[2] = Rat liver hepatocyte stability; type: in vitro ADME; conditions: rat liver hepatocytes
[3] = Plasma stability, rat; type: in vitro ADME; conditions: 5 µM, 37 °C, up to 4 h
Procedure: (§1) The plasma stability was estimated by preparing 5 µM of eurycomanone in 600 µL plasma in triplicates. The plasma stability of eurycomanone was determined in five types of plasma (mice, rat, dog, monkey, and human). The reaction was kept at 37 °C and ACN (100 µL) was added at timepoints 0, 30 min, and 1, 2, and 4 h to the reaction mixture (100 µL). The supernatant (10,000 rpm, 10 min, 4 °C) was collected and analysed by LC-MS/MS. The standards (propantheline bromide and enalapril) were analysed in triplicates.

[4] = Plasma stability, monkey; type: in vitro ADME; conditions: 5 µM, 37 °C, up to 4 h, compared with human, rat and dog plasma
Procedure: as §1

[5] = Plasma stability, mice; type: in vitro ADME; conditions: 5 µM, 37 °C, up to 4 h, compared with human, rat and dog plasma
Procedure: as §1

[6] = Plasma protein binding (rapid equilibrium dialysis), dog; type: in vitro ADME; conditions: pH 7.4, 37 °C, read-out: percentage bound to plasma protein (converted)
Procedure: The ability of eurycomanone to bind plasma protein was analysed in five types of plasma (mice, rat, dog, monkey, and human). Each type of plasma was spiked with eurycomanone (1 mM) to make the 10 µM test concentration of eurycomanone in the plasma. Equilibrium dialysis buffer (500 µL) at pH 7.4 was added to the right chamber in rapid equilibrium dialysis (RED), while the spiked plasma (300 µL) was added to the left chamber. The Teflon base plate was covered with aluminium foil and left on the shaking incubator at 37 °C for 4 h. The matrix was balanced by mixing 100 µL of the equilibrium buffer with the spiked plasma from the left chamber in RED before adding the stop solution (350 µL) to precipitate out the protein. The supernatant (10,000 rpm, 10 min, 4 °C) was collected and analysed using LC-MS/MS. The standards (propranolol, warfarin, and acebutalol) were analysed in duplicates.

## C=C1[C@@H](O)[C@]2(O)OC[C@]34[C@H]2[C@@]2(C)[C@H](O)C(=O)C=C(C)[C@@H]2C[C@H]3OC(=O)[C@H](O)[C@@]14O [Eurycomanone]
[1]
  chemical stability (percentage remaining after 3 h of incubation): high stability
[1]; listed as eurycomanone
  chemical stability (percentage remaining after 3 h of incubation): chemically stable across all pH values tested
[2]
  Half-life (t1/2): >1.5 h
  half-life: > 1.5 h
[2]; read-out: Intrinsic clearance (Clint)
  hepatocyte CLint: 0.67 µL/min/1e6 cells
[3]
  plasma stability: highly stable
[4]
  plasma stability: slightly lower
[5]
  plasma stability: slightly lower
[6]
  fraction unbound at 4 h, 10 µM: 0.322
